Source: ChEMBL document CHEMBL3046898, “Synthesis and characterization of flurbiprofen hydrazide derivatives as potential anti-HCV, anticancer and antimicrobial agents” (2013)
Active and inactive are the calls of the source. No cut-off for these calls is given here.

How the values were obtained:
[1] = tested on: Micrococcus lylae; assay: Antibacterial activity against Micrococcus lylae at 6.25 to 200 ug/ml after 24 hrs by microwell dilution method; assay type: functional, organism-based
[2] = tested on: Pseudomonas aeruginosa; assay: Antibacterial activity against Pseudomonas aeruginosa at 6.25 to 200 ug/ml after 24 hrs by microwell dilution method; assay type: functional, organism-based
[3] = tested on: Proteus vulgaris; assay: Antibacterial activity against Proteus vulgaris at 6.25 to 200 ug/ml after 24 hrs by microwell dilution method; assay type: functional, organism-based
[4] = tested on: Escherichia coli; assay: Antibacterial activity against Escherichia coli at 6.25 to 200 ug/ml after 24 hrs by microwell dilution method; assay type: functional, organism-based
[5] = tested on: Staphylococcus cohnii; assay: Antibacterial activity against Staphylococcus cohnii at 6.25 to 200 ug/ml after 24 hrs by microwell dilution assay; assay type: functional, organism-based
[6] = tested on: Staphylococcus aureus; assay: Antibacterial activity against Staphylococcus aureus at 6.25 to 200 ug/ml after 24 hrs by microwell dilution assay; assay type: functional, organism-based
[7] = tested on: Micrococcus luteus; assay: Antibacterial activity against Micrococcus luteus at 6.25 to 200 ug/ml after 24 hrs by microwell dilution method; assay type: functional, organism-based
[8] = tested on: Aspergillus; assay: Antifungal activity against Aspergillus at 10 mg/ml after 72 hrs by disc diffusion method; assay type: functional, organism-based
[9] = tested on: Pichia membranifaciens; assay: Antifungal activity against Pichia membranifaciens at 10 mg/ml after 48 hrs by disc diffusion method; assay type: functional, organism-based
[10] = tested on: Kluyveromyces marxianus; assay: Antifungal activity against Kluyveromyces marxianus at 10 mg/ml after 48 hrs by disc diffusion method; assay type: functional, organism-based
[11] = tested on: Schwanniomyces occidentalis; assay: Antifungal activity against Schwanniomyces occidentalis at 10 mg/ml after 48 hrs by disc diffusion method; assay type: functional, organism-based
[12] = tested on: Nakaseomyces glabratus; assay: Antifungal activity against Candida glabrata at 10 mg/ml after 48 hrs by disc diffusion method; assay type: functional, organism-based
[13] = tested on: Candida parapsilosis; assay: Antifungal activity against Candida parapsilosis at 10 mg/ml after 48 hrs by disc diffusion method; assay type: functional, organism-based
[14] = tested on: Candida tropicalis; assay: Antifungal activity against Candida tropicalis at 10 mg/ml after 48 hrs by disc diffusion method; assay type: functional, organism-based
[15] = tested on: Candida albicans; assay: Antifungal activity against Candida albicans at 10 mg/ml after 48 hrs by disc diffusion method; assay type: functional, organism-based
[16] = tested on: Photorhabdus luminescens; assay: Antibacterial activity against Photorhabdus luminescens at 10 mg/ml after 24 hrs by disc diffusion method; assay type: functional, organism-based
[17] = tested on: Klebsiella aerogenes; assay: Antibacterial activity against Enterobacter aerogenes at 6.25 to 200 ug/ml after 24 hrs by microwell dilution method; assay type: functional, organism-based
[18] = tested on: Photorhabdus luminescens; assay: Antibacterial activity against Photorhabdus luminescens at 6.25 to 200 ug/ml after 24 hrs by microwell dilution method; assay type: functional, organism-based
[19] = tested on: Acinetobacter radioresistens; assay: Antibacterial activity against Acinetobacter radioresistens at 6.25 to 200 ug/ml after 24 hrs by microwell dilution method; assay type: functional, organism-based
[20] = tested on: Salmonella paratyphi; assay: Antibacterial activity against Salmonella paratyphi at 6.25 to 200 ug/ml after 24 hrs by microwell dilution method; assay type: functional, organism-based; details: Salmonella enterica subsp. enterica serovar Paratyphi A
[21] = tested on: Klebsiella aerogenes; assay: Antibacterial activity against Enterobacter aerogenes at 10 mg/ml after 24 hrs by disc diffusion method; assay type: functional, organism-based
[22] = tested on: Acinetobacter radioresistens; assay: Antibacterial activity against Acinetobacter radioresistens at 10 mg/ml after 24 hrs by disc diffusion method; assay type: functional, organism-based
[23] = tested on: Salmonella paratyphi; assay: Antibacterial activity against Salmonella paratyphi at 10 mg/ml after 24 hrs by disc diffusion method; assay type: functional, organism-based; details: Salmonella enterica subsp. enterica serovar Paratyphi A
[24] = tested on: Micrococcus lylae; assay: Antibacterial activity against Micrococcus lylae at 10 mg/ml after 24 hrs by disc diffusion method; assay type: functional, organism-based
[25] = tested on: Pseudomonas aeruginosa; assay: Antibacterial activity against Pseudomonas aeruginosa at 10 mg/ml after 24 hrs by disc diffusion method; assay type: functional, organism-based
[26] = tested on: Escherichia coli; assay: Antibacterial activity against Escherichia coli at 10 mg/ml after 24 hrs by disc diffusion method; assay type: functional, organism-based
[27] = tested on: Proteus vulgaris; assay: Antibacterial activity against Proteus vulgaris at 10 mg/ml after 24 hrs by disc diffusion method; assay type: functional, organism-based
[28] = tested on: Micrococcus luteus; assay: Antibacterial activity against Micrococcus luteus at 10 mg/ml after 24 hrs by disc diffusion method; assay type: functional, organism-based
[29] = tested on: Staphylococcus aureus; assay: Antibacterial activity against Staphylococcus aureus at 10 mg/ml after 24 hrs by disc diffusion method; assay type: functional
[30] = tested on: Staphylococcus cohnii; assay: Antibacterial activity against Staphylococcus cohnii at 10 mg/ml after 24 hrs by disc diffusion method; assay type: functional
[31] = tested on: Hepacivirus hominis; assay: Inhibition of HCV N-terminal His-tagged NS5B RNA dependent RNA polymerase expressed in Escherichia coli DH5alpha using poly rA/U12 as primer at 200 uM after 60 mins by liquid scintillation counting

Structure (SMILES): CC(C(=O)N/N=C/c1ccccc1F)c1ccc(-c2ccccc2)c(F)c1 (configuration not stated)
- Activity [1]: inactive
- Activity [2]: inactive
- Activity [3]: inactive
- Activity [4]: inactive
- Activity [5]: inactive
- Activity [6]: inactive
- Activity [7]: inactive
- Activity [8]: inactive
- Activity [9]: inactive
- Activity [10]: inactive
- Activity [11]: inactive
- Activity [12]: inactive
- Activity [13]: inactive
- Activity [14]: inactive
- Activity [15]: inactive
- Activity [16]: inactive
- Activity [17]: inactive
- Activity [18]: inactive
- Activity [19]: inactive
- Activity [20]: inactive
- Activity [21]: inactive
- Activity [22]: inactive
- Activity [23]: inactive
- Activity [24]: inactive
- Activity [25]: inactive
- Activity [26]: inactive
- Activity [27]: inactive
- Activity [28]: inactive
- Activity [29]: inactive
- Activity [30]: inactive
- inhibition [31]: 8%

Structure (SMILES): CC(C(=O)N/N=C/c1ccc(C(F)(F)F)cc1)c1ccc(-c2ccccc2)c(F)c1 (configuration not stated)
- Activity [1]: inactive
- Activity [2]: inactive
- Activity [3]: inactive
- Activity [4]: inactive
- Activity [5]: inactive
- Activity [6]: inactive
- Activity [7]: inactive
- Activity [8]: inactive
- Activity [9]: inactive
- Activity [10]: inactive
- Activity [11]: inactive
- Activity [12]: inactive
- Activity [13]: inactive
- Activity [14]: inactive
- Activity [15]: inactive
- Activity [16]: inactive
- Activity [17]: inactive
- Activity [18]: inactive
- Activity [19]: inactive
- Activity [20]: inactive
- Activity [21]: inactive
- Activity [22]: inactive
- Activity [23]: inactive
- Activity [24]: inactive
- Activity [25]: inactive
- Activity [26]: inactive
- Activity [27]: inactive
- Activity [28]: inactive
- Activity [29]: inactive
- Activity [30]: inactive
- inhibition [31]: 8%

Structure (SMILES): CC(C(=O)NN1C(=O)CSC1c1ccccc1Cl)c1ccc(-c2ccccc2)c(F)c1 (configuration not stated)
- Activity [1]: inactive
- Activity [2]: inactive
- Activity [3]: inactive
- Activity [4]: inactive
- Activity [5]: inactive
- Activity [6]: inactive
- Activity [7]: inactive
- Activity [8]: inactive
- Activity [9]: inactive
- Activity [10]: inactive
- Activity [11]: inactive
- Activity [12]: inactive
- Activity [13]: inactive
- Activity [14]: inactive
- Activity [15]: inactive
- Activity [16]: inactive
- Activity [17]: inactive
- Activity [18]: inactive
- Activity [19]: inactive
- Activity [20]: inactive
- Activity [21]: inactive
- Activity [22]: inactive
- Activity [23]: inactive
- Activity [24]: inactive
- Activity [25]: inactive
- Activity [26]: inactive
- Activity [27]: inactive
- Activity [28]: inactive
- Activity [29]: inactive
- Activity [30]: inactive
- inhibition [31]: 70%

Structure (SMILES): CC(C(=O)NN1C(=O)CSC1c1ccc(F)cc1)c1ccc(-c2ccccc2)c(F)c1 (configuration not stated)
- Activity [1]: inactive
- Activity [2]: inactive
- Activity [3]: inactive
- Activity [4]: inactive
- Activity [5]: inactive
- Activity [6]: inactive
- Activity [7]: inactive
- Activity [8]: inactive
- Activity [9]: inactive
- Activity [10]: inactive
- Activity [11]: inactive
- Activity [12]: inactive
- Activity [13]: inactive
- Activity [14]: inactive
- Activity [15]: inactive
- Activity [16]: inactive
- Activity [17]: inactive
- Activity [18]: inactive
- Activity [19]: inactive
- Activity [20]: inactive
- Activity [21]: inactive
- Activity [22]: inactive
- Activity [23]: inactive
- Activity [24]: inactive
- Activity [25]: inactive
- Activity [26]: inactive
- Activity [27]: inactive
- Activity [28]: inactive
- Activity [29]: inactive
- Activity [30]: inactive
- inhibition [31]: 8%

Structure (SMILES): CNC(=S)NNC(=O)C(C)c1ccc(-c2ccccc2)c(F)c1 (configuration not stated)
- Activity [1]: inactive
- Activity [2]: inactive
- Activity [3]: inactive
- Activity [4]: inactive
- Activity [5]: inactive
- Activity [6]: inactive
- Activity [7]: inactive
- Activity [8]: inactive
- Activity [9]: inactive
- Activity [10]: inactive
- Activity [11]: inactive
- Activity [12]: inactive
- Activity [13]: inactive
- Activity [14]: inactive
- Activity [15]: inactive
- Activity [16]: inactive
- Activity [17]: inactive
- Activity [18]: inactive
- Activity [19]: inactive
- Activity [20]: inactive
- Activity [21]: inactive
- Activity [22]: inactive
- Activity [23]: inactive
- Activity [24]: inactive
- Activity [25]: inactive
- Activity [26]: inactive
- Activity [27]: inactive
- Activity [28]: inactive
- Activity [29]: inactive
- Activity [30]: inactive
- inhibition [31]: 8%

Structure (SMILES): CCCCNC(=S)NNC(=O)C(C)c1ccc(-c2ccccc2)c(F)c1 (configuration not stated)
- Activity [1]: inactive
- Activity [2]: inactive
- Activity [3]: inactive
- Activity [4]: inactive
- Activity [5]: inactive
- Activity [6]: inactive
- Activity [7]: inactive
- Activity [8]: inactive
- Activity [9]: inactive
- Activity [10]: inactive
- Activity [11]: inactive
- Activity [12]: inactive
- Activity [13]: inactive
- Activity [14]: inactive
- Activity [15]: inactive
- Activity [16]: inactive
- Activity [17]: inactive
- Activity [18]: inactive
- Activity [19]: inactive
- Activity [20]: inactive
- Activity [21]: inactive
- Activity [22]: inactive
- Activity [23]: inactive
- Activity [24]: inactive
- Activity [25]: inactive
- Activity [26]: inactive
- Activity [27]: inactive
- Activity [28]: inactive
- Activity [29]: inactive
- Activity [30]: inactive
- inhibition [31]: 70%

Structure (SMILES): CC(C(=O)NN1C(=O)CSC1c1ccccc1F)c1ccc(-c2ccccc2)c(F)c1 (configuration not stated)
- Activity [1]: inactive
- Activity [2]: inactive
- Activity [3]: inactive
- Activity [4]: inactive
- Activity [5]: inactive
- Activity [6]: inactive
- Activity [7]: inactive
- Activity [8]: inactive
- Activity [9]: inactive
- Activity [10]: inactive
- Activity [11]: inactive
- Activity [12]: inactive
- Activity [13]: inactive
- Activity [14]: inactive
- Activity [15]: inactive
- Activity [16]: inactive
- Activity [17]: inactive
- Activity [18]: inactive
- Activity [19]: inactive
- Activity [20]: inactive
- Activity [21]: inactive
- Activity [22]: inactive
- Activity [23]: inactive
- Activity [24]: inactive
- Activity [25]: inactive
- Activity [26]: inactive
- Activity [27]: inactive
- Activity [28]: inactive
- Activity [29]: inactive
- Activity [30]: inactive
- inhibition [31]: 8%
